From patent US8067395B2, “Inhibitors of tyrosine kinases and uses thereof” (Pharmacyclics, Inc., priority 2006, dated 2011)

Biological target: Btk (Homo sapiens, UniProt Q06187)
Experiment: Btk TR-FRET kinase inhibition assay
Type: biochemical
Conditions: pH 7.4, ATP at the Km for the kinase, 1 μM peptide substrate, [Btk]total=0.5 nM, read-out: Btk-TRFRET (Ki)
Protocol: Suitable in vitro assays for measuring kinase activity and the inhibition thereof by compounds are known (e.g., see Kuzmic et al. Anal. Biochem. 2000, 286, 45-50).
The following protocol represents an assay for determination of inhibition of kinases under physiological conditions (pH 7.4). Kinase activity was determined using a time-resolved fluorescence resonance energy transfer (TR-FRET) methodology. Measurements were performed in a reaction volume of 50 μL using 96-well assay plates. Kinase enzyme, inhibitor, ATP (at the Km for the kinase), and 1 μM peptide substrate (Biotin-AVLESEEELYSSARQ-NH2) were incubated in a reaction buffer composed of 20 mM Tris, 50 mM NaCl, MgCl2 (5-25 mM depending on the kinase), 1 mM DTT, 0.1 mM EDTA, 0.01% bovine serum albumin, 0.005% Tween-20, and 10% DMSO at pH 7.4 for one hour. The reaction was quenched by the addition of 1.2 equivalents of EDTA (relative to Mg^2+) in 25 μL of 1× Lance buffer (Perkin-Elmer). Streptavidin-APC (Perkin-Elmer) and Eu-labeled p-Tyr100 antibody (Perkin-Elmer) in 1× Lance buffer were added in a 25 μL volume to give final concentrations of 100 nM and 2.5 nM, respectively, and the mixture was allowed to incubate for one hour. The TR-FRET signal was measured on a multimode plate reader with an excitation wavelength of 330 nm and detection wavelengths of 615 nm and 665 nm. Activity was determined by the ratio of the fluorescence at 665 nm to that at 615 nm. For each compound, enzyme activity was measured at various concentrations of compound. Negative control reactions were performed in the absence of inhibitor in replicates of six, and two no-enzyme controls were used to determine baseline fluorescence levels. Inhibition constants were obtained using the program BatchKi (Kuzmic et al. Anal. Biochem. 2000, 286, 45-50). IC50s were obtained according to this equation: IC50={Ki(app)/(1+[ATP]/Km^ATP)}+[E]total/2; for all kinases, [ATP]=Km^ATP, [Btk]total=0.5 nM and [Lck]total=6 nM.

Sequence of Btk (Q06187 whole entry): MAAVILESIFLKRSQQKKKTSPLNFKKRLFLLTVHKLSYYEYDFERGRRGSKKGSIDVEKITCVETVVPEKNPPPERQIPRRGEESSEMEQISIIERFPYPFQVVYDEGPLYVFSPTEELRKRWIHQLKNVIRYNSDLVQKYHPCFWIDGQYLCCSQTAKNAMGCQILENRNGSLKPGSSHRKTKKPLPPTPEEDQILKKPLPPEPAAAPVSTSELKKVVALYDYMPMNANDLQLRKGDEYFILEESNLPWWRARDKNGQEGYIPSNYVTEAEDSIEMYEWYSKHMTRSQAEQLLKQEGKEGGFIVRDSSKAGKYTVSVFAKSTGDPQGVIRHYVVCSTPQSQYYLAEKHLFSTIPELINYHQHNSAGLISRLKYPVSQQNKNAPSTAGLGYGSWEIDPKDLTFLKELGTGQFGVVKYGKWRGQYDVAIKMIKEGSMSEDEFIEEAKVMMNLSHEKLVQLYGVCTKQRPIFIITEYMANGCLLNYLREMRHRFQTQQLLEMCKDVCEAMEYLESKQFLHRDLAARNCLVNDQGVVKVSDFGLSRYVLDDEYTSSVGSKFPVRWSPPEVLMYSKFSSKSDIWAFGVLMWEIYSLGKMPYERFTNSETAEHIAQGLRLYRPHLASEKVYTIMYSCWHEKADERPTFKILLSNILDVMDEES

Row | SMILES | Ki
1 | Cc1cc(F)ccc1Nc1nc2ccc3c(C)c(C=CCN4CCP(=O)(c5ccc(F)cc5)CC4)[nH]c(=O)c3c2n1C [Compound 10, 2-(4-fluoro-2-methylphenylamino)-1,6-dimethyl-7-[3-(4-oxo-4-(4-fluorophenyl)-4λ^5-[1,4]azaphosphinan-1-yl)-propenyl]-1,8-dihydro-imidazo[4,5-h]isoquinolin-9-one] | < 100 nM
2 | COc1ccc(P2(=O)CCN(CC=Cc3[nH]c(=O)c4c(ccc5nc(Nc6cc(F)ccc6C)n(C)c54)c3C)CC2)cc1 [Compound 11, 2-(3-fluoro-6-methylphenylamino)-1,6-dimethyl-7-[3-(4-oxo-4-(4-methoxyphenyl)-4λ^5-[1,4]azaphosphinan-1-yl)-propenyl]-1,8-dihydro-imidazo[4,5-h]isoquinolin-9-one] | < 100 nM
3 | Cc1cc(F)ccc1Nc1nc2ccc3c(C)c(/C=C/CN4CCP(=O)(Cc5ccc(F)cc5)CC4)[nH]c(=O)c3c2n1C [Compound 12, 2-(4-fluoro-2-methylphenylamino)-1,6-dimethyl-7-{3-[4-(4-fluorophenylmethyl)-4-oxo-4λ^5-[1,4]azaphosphinan-1-yl]-propenyl}-1,8-dihydro-imidazo[4,5-h]isoquinolin-9-one] | < 100 nM
4 | Cc1cc(F)ccc1Nc1nc2ccc3c(C)c(/C=C/CN4CCP(=O)(CC5CC5)CC4)[nH]c(=O)c3c2n1C [Compound 13, 2-(4-fluoro-2-methylphenylamino)-1,6-dimethyl-7-{3-[4-(cyclopropylmethyl)-4-oxo-4λ^5-[1,4]azaphosphinan-1-yl]-propenyl}-1,8-dihydro-imidazo[4,5-h]isoquinolin-9-one] | < 100 nM
5 | Cc1cc(F)ccc1Nc1nc2ccc3c(C)c(/C=C/CN4CCP(=O)(C5CC5)CC4)[nH]c(=O)c3c2n1C [Compound 14, 2-(4-fluoro-2-methylphenylamino)-1,6-dimethyl-7-{3-[4-(cyclopropyl)-4-oxo-4λ^5-[1,4]azaphosphinan-1-yl]-propenyl}-1,8-dihydro-imidazo[4,5-h]isoquinolin-9-one] | < 100 nM
6 | Cc1cc(F)ccc1Nc1nc2ccc3c(C)c(C=CCNC(=O)C4CCP(=O)(c5ccccc5)CC4)[nH]c(=O)c3c2n1C (stereo not drawn) [Compound 16, 2-(4-fluoro-2-methylphenylamino)-1,6-dimethyl-7-{3-[(1-oxo-1-trans-phenyl-1λ^5-phosphinan-4-yl)-carbonylamino]propenyl}-1,8-dihydro-imidazo[4,5-h]isoquinolin-9-one] | < 100 nM
7 | Cc1cc(F)ccc1Nc1nc2ccc3c(C)c(/C=C/CNC(=O)[C@H]4CC[P@@](=O)(c5ccccc5)CC4)[nH]c(=O)c3c2n1C [Compound 17, 2-(4-fluoro-2-methyl-phenylamino)-1,6-dimethyl-7-{3-[(1-oxo-1-cis-phenyl-1λ^5-phosphinan-4-yl)-carbonylamino]propenyl}-1,8-dihydro-imidazo[4,5-h]isoquinolin-9-one] | < 100 nM
8 | Cc1c(C=CCN2CCN(c3ccccc3)CC2)[nH]c(=O)c2c1ccc1nc(Nc3c(Cl)cccc3Cl)n(C)c12 [Compound 18, 2-(2,6-dichlorophenylamino)-1,6-dimethyl-7-[3-(N-phenylpiperazin-1-yl)-propenyl]-1,8-dihydro-imidazo[4,5-h]isoquinolin-9-one] | < 100 nM
9 | Cc1cc(F)ccc1Nc1nc2ccc3c(C)c(C=CCN4CCN(c5ccccc5)CC4)[nH]c(=O)c3c2n1C [Compound 19, 2-(4-fluoro-2-methylphenylamino)-1,6-dimethyl-7-[3-(N-phenylpiperazin-1-yl)-propenyl]-1,8-dihydro-imidazo[4,5-h]isoquinolin-9-one] | < 100 nM
10 | Cc1cc(F)ccc1Nc1nc2ccc3c(C)c(C=CCN4CCN(c5ccc(Cl)cc5)CC4)[nH]c(=O)c3c2n1C [Compound 20, 2-(4-fluoro-2-methylphenylamino)-1,6-dimethyl-7-[3-(N-(4-chlorophenyl)-piperazin-1-yl)-propenyl]-1,8-dihydro-imidazo[4,5-h]isoquinolin-9-one] | < 100 nM
